The values that follow come from US9511134B2, “Inducing immune responses to influenza virus using polypeptide and nucleic acid compositions” (priority 2006, dated 2016).

One assay has as its target T1, DRB1*0301 (Homo sapiens, UniProt P01903+P01911, A100K/A102G/A103R/A169T/F55Y/I96L/K41T/L162R/M171V/P40S/Q125H/Q178H/Q39Y/R42S/S66N/T106N/T262R/W38E/Y61H).
T1 construct: made in house; host or cells: EBV-transformed homozygous human B cell lines, transfected fibroblasts or single-allele 721.221 transfectants
The assay can be described thus: biochemical. The format is binding.

The target in another assay is T2, DRB1*0401 (Homo sapiens, UniProt P01903+P01911, A100K/A169T/F76Y/I96L/K127E/L162R/M171V/N62H/P40V/Q125Y/R42H/S133A/S149N/S66Y/V115G/V209L/W38E).
T2 construct: made in house; host or cells: EBV-transformed homozygous human B cell lines, transfected fibroblasts or single-allele 721.221 transfectants
The experiment in a line: biochemical. As to conditions: read-out: IC50 nM to purified HLA DRB1*0401. The format is binding.

Another assay concerns the target DRB1*0405 (Homo sapiens, UniProt P01903+P01911, A100R/A169T/D86S/F76Y/I96L/K127E/L162R/M171V/N62H/P40V/Q125Y/R42H/S133A/S149N/S66Y/V115G/V209L/W38E). The experiment in a line: biochemical. The format is binding. As to conditions: read-out: IC50 nM to purified HLA DRB1*0405.
For another assay, the target named is DRB1*1302 (Homo sapiens, UniProt P01903+P01911, A100E/A169T/K41T/L162R/M171V/P40S/Q125H/Q178H/Q39Y/Q99D/R42S/S66N/T262R/V115G/W38E/Y61H). The assay can be described thus: biochemical. In kind it is binding. Particulars: read-out: IC50 nM to purified HLA DRB1*1302.
Chain of DRB1*1302 (P01903 26-254 limits assumed, other chains not shown): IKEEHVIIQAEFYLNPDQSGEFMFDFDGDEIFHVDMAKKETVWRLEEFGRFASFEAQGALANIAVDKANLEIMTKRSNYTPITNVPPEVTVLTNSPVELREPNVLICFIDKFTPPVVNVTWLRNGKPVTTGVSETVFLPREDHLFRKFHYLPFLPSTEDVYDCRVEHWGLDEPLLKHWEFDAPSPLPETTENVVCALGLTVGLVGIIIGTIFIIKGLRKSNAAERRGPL
The target of another assay is T3, DRB1*0101 (Homo sapiens, UniProt P01903+P01911, A100R/D57E/F55L/F60I/F76Y/I96L/L162R/M171V/P40L/Q125E/R42F/V115G/Y59C).
T3 construct: made in house; host or cells: EBV-transformed homozygous human B cell lines, transfected fibroblasts or single-allele 721.221 transfectants
The experiment in a line: biochemical. The format is binding.

Another assay addresses DRB1*0404 (Homo sapiens, UniProt P01903+P01911, A100R/A169T/F76Y/I96L/K127E/L162R/M171V/N62H/P40V/Q125Y/R42H/S133A/S149N/S66Y/V209L/W38E). The experiment in a line: biochemical. Particulars: IC50 nM to purified HLA DRB1*0404. In kind it is binding.
In another assay the test system is CD4+ PBMC. The format is cell-based, human. As to conditions: IFNγ ELISPOT, CD8-depleted; for Human influenza epitope-specific immune response, donor 3501: PBMC rested five days.
Setting [1] is: IC50 nM to purified HLA DRB1*0101.
Where [2] appears, read: five day expansion with peptide pool.

“And” between values parts separate entries of the source, which are not always exact repeats. Equal entries are not always repeated. Where two headings read alike, the source gives them in different places. Where no end group is shown, it is not given here.

T1 sequence (P01903 26-254, other chains not shown): as the sequence (P01903 26-254 limits assumed, other chains not shown) above

As for `CC[C@H](C)[C@H](NC(=O)CNC(=O)[C@@H](N)CCCNC(=N)N)C(=O)N[C@@H](CC(C)C)C(=O)N[C@@H](CCC(=O)O)C(=O)N[C@@H](CC(=O)O)C(=O)N[C@@H](CCC(=O)O)C(=O)N[C@@H](CCC(N)=O)C(=O)N[C@@H](CCSC)C(=O)N[C@@H](Cc1ccc(O)cc1)C(=O)N[C@@H](CCC(N)=O)C(=O)N[C@@H](CCCCN)C(=O)N[C@@H](CS)C(=O)N[C@@H](CS)C(=O)N[C@@H](CC(N)=O)C(=O)O` [Flu.PB1.683], the IC50 (usually the point on the concentration scale where inhibition reaches its midpoint) against DRB1*0301 was 43 nM; at DRB1*0401, 5740 nM; on DRB1*0405, 3280 nM; on DRB1*1302, 18000 nM.
As to `CC[C@H](C)[C@H](NC(=O)[C@H](CCCNC(=N)N)NC(=O)[C@H](C)NC(=O)[C@H](CCCNC(=N)N)NC(=O)[C@H](CO)NC(=O)[C@@H](N)C(C)C)C(=O)N[C@@H](CC(=O)O)C(=O)N[C@@H](C)C(=O)N[C@@H](CCCNC(=N)N)C(=O)N[C@H](C(=O)N[C@@H](CC(=O)O)C(=O)N[C@@H](Cc1ccccc1)C(=O)N[C@@H](CCC(=O)O)C(=O)N[C@@H](CO)C(=O)NCC(=O)O)[C@@H](C)CC` [Flu.PB1.722], the IC50 at DRB1*0405 is 3010 nM.
Turning to ALQLLFEVEQEIRTF [Flu.NS2.178], the values for the IC50 against DRB1*0101 (setting [1]), at DRB1*0404 and at DRB1*0405 were 3490 nM, 2150 nM and 8870 nM, respectively.
Consider `CC[C@H](C)[C@H](NC(=O)CNC(=O)[C@H](CCCNC(=N)N)NC(=O)[C@@H](N)CCC(N)=O)C(=O)N[C@@H](CC(C)C)C(=O)N[C@@H](CCC(=O)O)C(=O)N[C@@H](CC(=O)O)C(=O)N[C@@H](CCC(=O)O)C(=O)N[C@@H](CCC(N)=O)C(=O)N[C@@H](CCSC)C(=O)N[C@@H](Cc1ccc(O)cc1)C(=O)N[C@@H](CCC(N)=O)C(=O)N[C@@H](CCCCN)C(=O)N[C@@H](CS)C(=O)N[C@@H](CS)C(=O)O` [Flu.PB1.682], for which the IC50 at DRB1*0101 (setting [1]) was 433 nM; against DRB1*0301, 34 nM; at DRB1*0401 it was 2560 nM; against DRB1*0404 it was 3270 nM; at DRB1*0405 it was 700 nM.
For LILYDKEEIRRIWRQ [Flu.NP.111], the IC50 at DRB1*0101 (setting [1]) amounted to 7180 nM; at DRB1*0301, 22 nM; at DRB1*0404 it was 262 nM; at DRB1*0405, 7500 nM; on DRB1*1302, 3100 nM.
Consider GSYFFGDNAEEYDN [Flu.NP.488], for which the 50% inhibitory concentration (IC50) came out at 1950 nM at DRB1*0401 and 65 nM on DRB1*0405.
For `CC[C@H](C)[C@H](NC(=O)[C@H](C)NC(=O)CNC(=O)[C@@H](N)CCC(=O)O)C(=O)N[C@H](C(=O)NCC(=O)N[C@@H](CCC(=O)O)C(=O)N[C@H](C(=O)N[C@@H](CO)C(=O)N1CCC[C@H]1C(=O)N[C@@H](CC(C)C)C(=O)N1CCC[C@H]1C(=O)N[C@@H](CO)C(=O)N[C@@H](CC(C)C)C(=O)N1CCC[C@H]1C(=O)O)[C@@H](C)CC)C(C)C` [Flu.NS1.156], the IC50 against DRB1*0101 (setting [1]) is 85 nM; on DRB1*0101 (IC50 nM to purified HLA DRB1*0101, Table 4), 85 nM; on DRB1*0401 (Table 4), 48 nM; on DRB1*0401 it was 48 nM and 27 nM; on DRB1*0404, 13 nM. Further, the “Human influenza epitope-specific immune response, donor 3501” value in the assay on CD4+ PBMC is “Positive (Donors were considered positive for a peptide if the number of spots was over 3 times background as determined by responses to irrelevant peptides (non influenza))”.
As to `CC[C@H](C)[C@H](NC(=O)[C@H](CCC(=O)O)NC(=O)[C@H](CCC(N)=O)NC(=O)[C@H](CCC(=O)O)NC(=O)[C@@H](NC(=O)[C@H](CCC(=O)O)NC(=O)[C@H](CC(C)C)NC(=O)[C@H](CC(C)C)NC(=O)[C@H](CC(C)C)NC(=O)[C@@H](N)CCC(N)=O)C(C)C)C(=O)N[C@@H](CCCNC(=N)N)C(=O)N[C@H](C(=O)N[C@@H](Cc1ccccc1)C(=O)N[C@@H](CO)C(=O)N[C@@H](Cc1ccccc1)C(=O)O)[C@@H](C)O` [Flu.NS2.180], the IC50 against DRB1*0101 (setting [1]) came out at 11900 nM; at DRB1*0301 it was 792 nM; on DRB1*0401, 13900 nM; at DRB1*0404, 1600 nM; on DRB1*0405, 5140 nM.
Regarding MVAYMLERELVRKTR [Flu.PB2.205], the IC50 amounted to 97 nM against DRB1*0101 (setting [1]), 166 nM at DRB1*0401, 5540 nM on DRB1*0405 and 2080 nM at DRB1*1302.
`CSCC[C@H](NC(=O)[C@H](CO)NC(=O)[C@@H](NC(=O)[C@H](Cc1ccccc1)NC(=O)[C@H](CC(N)=O)NC(=O)[C@@H](N)C(C)C)C(C)C)C(=O)N[C@@H](CCC(=O)O)C(=O)N[C@@H](Cc1ccccc1)C(=O)N[C@@H](CO)C(=O)N[C@@H](CC(C)C)C(=O)N[C@H](C(=O)N[C@@H](CC(=O)O)C(=O)N1CCC[C@H]1C(=O)N[C@@H](CCCNC(=N)N)C(=O)N[C@@H](CC(C)C)C(=O)O)[C@@H](C)O` [Flu.PA.521]: the IC50 at DRB1*0405 came to 7700 nM.
With `CC[C@H](C)[C@H](NC(=O)[C@H](CCC(=O)O)NC(=O)[C@H](CCCNC(=N)N)NC(=O)[C@H](CCCCN)NC(=O)[C@H](CC(C)C)NC(=O)[C@H](CCCCN)NC(=O)[C@H](CCCNC(=N)N)NC(=O)[C@@H](N)Cc1ccc(O)cc1)C(=O)N[C@H](C(=O)N[C@@H](Cc1ccccc1)C(=O)N[C@@H](Cc1c[nH]cn1)C(=O)NCC(=O)N[C@@H](C)C(=O)N[C@@H](CCCCN)C(=O)N[C@@H](CCC(=O)O)C(=O)O)[C@@H](C)O` [Flu.M1.103], in the assay on CD4+ PBMC (setting [2]), the “Human influenza epitope-specific immune response, donor 716” value was “Positive (Donors were considered positive for a peptide if the number of spots was over 3 times background as determined by responses to irrelevant peptides (non influenza))” and the “Human influenza epitope-specific immune response, donor AC08” value is on record as “Positive (Donors were considered positive for a peptide if the number of spots was over 3 times background as determined by responses to irrelevant peptides (non influenza))”.
As for `CC[C@H](C)[C@H](NC(=O)[C@H](CC(C)C)NC(=O)[C@H](CS)NC(=O)[C@H](CCC(=O)O)NC(=O)[C@@H](N)CCC(=O)O)C(=O)N[C@@H](CC(N)=O)C(=O)N[C@@H](CC(=O)O)C(=O)N1CCC[C@H]1C(=O)N[C@@H](Cc1c[nH]c2ccccc12)C(=O)N[C@H](C(=O)N[C@@H](CC(C)C)C(=O)N[C@@H](CC(C)C)C(=O)N[C@@H](CC(N)=O)C(=O)N[C@@H](C)C(=O)N[C@@H](CO)C(=O)O)C(C)C` [Flu.PA.694], the half-inhibitory concentration (IC50) on DRB1*0101 (setting [1]) was determined as 34 nM; against DRB1*0301, 618 nM; against DRB1*0404 it was 183 nM; on DRB1*0405, 15000 nM.
On to `CSCC[C@H](NC(=O)[C@H](Cc1c[nH]c2ccccc12)NC(=O)[C@@H](NC(=O)[C@H](CC(C)C)NC(=O)[C@H](CCC(N)=O)NC(=O)[C@H](CO)NC(=O)[C@@H](N)CCCCN)C(C)C)C(=O)N[C@@H](C)C(=O)N[C@@H](CS)C(=O)N[C@@H](Cc1c[nH]cn1)C(=O)N[C@@H](CO)C(=O)N[C@@H](C)C(=O)N[C@@H](C)C(=O)N[C@@H](Cc1ccccc1)C(=O)N[C@@H](CCC(=O)O)C(=O)O` [Flu.NF.328], for which, in the assay with CD4+ PBMC (setting [2]), the “Human influenza epitope-specific immune response, donor 753” value is given as “Positive (Donors were considered positive for a peptide if the number of spots was over 3 times background as determined by responses to irrelevant peptides (non influenza))”.
As to `CC(C)[C@H](NC(=O)[C@H](CCC(=O)O)NC(=O)[C@H](C)NC(=O)[C@@H](NC(=O)[C@H](Cc1ccccc1)NC(=O)[C@H](Cc1ccc(O)cc1)NC(=O)[C@H](CC(N)=O)NC(=O)[C@@H](N)CCCNC(=N)N)[C@@H](C)O)C(=O)N[C@@H](CO)C(=O)N[C@@H](Cc1c[nH]cn1)C(=O)N[C@@H](CS)C(=O)N[C@@H](CCCNC(=N)N)C(=O)N[C@@H](C)C(=O)N[C@H](C(=O)N[C@@H](CCC(=O)O)C(=O)O)[C@@H](C)O` [Flu.PA.446], the 50% inhibitory concentration (IC50) against DRB1*0101 (setting [1]) was 627 nM; at DRB1*0301 it was 883 nM; at DRB1*0401, 45 nM; at DRB1*0404, 7600 nM; on DRB1*0405, 5720 nM.
`CC[C@H](C)[C@H](NC(=O)[C@H](CCC(N)=O)NC(=O)CNC(=O)[C@H](C)N)C(=O)N[C@@H](CO)C(=O)N[C@H](C(=O)N[C@@H](CCC(N)=O)C(=O)N1CCC[C@H]1C(=O)N[C@H](C(=O)N[C@@H](Cc1ccccc1)C(=O)N[C@@H](CO)C(=O)N[C@H](C(=O)N[C@@H](CCC(N)=O)C(=O)N[C@@H](CCCNC(=N)N)C(=O)N[C@@H](CC(N)=O)C(=O)O)C(C)C)[C@@H](C)O)C(C)C` [Flu.NP.406]: the “Human influenza epitope-specific immune response, donor 3501” value in the assay on CD4+ PBMC is recorded as “Positive (Donors were considered positive for a peptide if the number of spots was over 3 times background as determined by responses to irrelevant peptides (non influenza))”.
